Patent US20240252488A1 (KOREA RESEARCH INSTITUTE OF CHEMICAL TECHNOLOGY, priority 2020, published 2024)

How the values were obtained:
[1] = system: FADD−/− Jurkat cells; assay: Necroptosis inhibition assay, TNF-α-induced necroptosis (CellTiter-Glo 2.0); type: cell-based, human; settings: TNF-α 15 ng/mL; for Necroptosis inhibition assay (Rescue %) 1 μM: compound 1 μM; for Necroptosis inhibition assay (Rescue %) 10 μM: compound 10 μM
Description: Necroptosis Inhibition Assay
Necroptosis inhibition was evaluated by the following method.
80 μL of FADD gene-defective human T lymphocyte cells (FADD−/− Jurkat cells) were equally distributed into each well at 5.0×10^5 cells/mL in a white 96-well plate with a transparent bottom. 20 μL of the medium containing test compound was treated in each well so that the final concentration of the compound was 0.1, 1, and 10 μM, and reacted at room temperature for 30 minutes. After the 30-minute reaction was over, TNF (tumor necrosis factor)-α was treated in the corresponding well so that the final concentration of TNF-α was 15 ng/mL in order to induce necroptosis. It was cultured in a 5% CO2, 37° C. incubator for 20 to 24 hours.
After incubation, the 96-well plate was left at room temperature for 30 minutes. After 30 minutes, Promega's CellTiter-Glo 2.0 reagent was diluted 1:3 with PBS and 100 μL of the diluted solution was added to each well to confirm cell viability by measuring the amount of ATP. After the treatment, the plate was shielded from light and incubated at room temperature for 2 minutes with orbital shaking, and then left at room temperature for 10 minutes without shaking. After measuring the luminescence at 0.5 seconds per well using a plate scanner, the cytotoxicity and necroptosis inhibition rate for the compound were calculated using the measured values.

[2] = biological target: T1, MLKL (Homo sapiens, UniProt Q8NB16); assay: Measurement of binding affinity with MLKL receptor (competitive binding assay, Kd); set-up: made in house; host or cells: HEK 293 cell line (T7 phage in E. coli BL21-derived host is also described)
T1 sequence (Q8NB16 1-471): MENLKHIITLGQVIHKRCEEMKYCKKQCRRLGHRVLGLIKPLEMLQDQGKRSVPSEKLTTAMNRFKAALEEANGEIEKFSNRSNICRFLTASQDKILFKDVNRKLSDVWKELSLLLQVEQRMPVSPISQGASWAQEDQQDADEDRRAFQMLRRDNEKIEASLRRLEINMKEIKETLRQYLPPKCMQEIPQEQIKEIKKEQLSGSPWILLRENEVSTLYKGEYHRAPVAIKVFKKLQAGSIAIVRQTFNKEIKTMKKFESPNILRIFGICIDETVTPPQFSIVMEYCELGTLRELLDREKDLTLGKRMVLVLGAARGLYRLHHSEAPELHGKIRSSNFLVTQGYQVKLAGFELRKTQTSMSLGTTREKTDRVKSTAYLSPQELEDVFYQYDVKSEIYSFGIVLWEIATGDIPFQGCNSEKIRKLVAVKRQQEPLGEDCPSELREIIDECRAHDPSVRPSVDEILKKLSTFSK
Description: Measurement of Binding Affinity with MLKL Receptor (Competitive Binding Assay)
The binding affinity was evaluated by measuring the Kd value in the following method.
To prepare kinase-tagged T7 phage strains in an E. coli host derived from the BL21 strain, E. coli were grown to log-phase and infected with T7 phage and incubated with shaking at 32° C. until lysis. The lysates were centrifuged and filtered to remove cell debris. For kinase production, it was expressed in human embryonic kidney cell line (HEK 293 cell line), and subsequently tagged with DNA for qPCR detection.
The liganded beads were blocked with excess biotin and washed with blocking buffer (SeaBlock (Pierce), 1% BSA, 0.05% Tween 20, 1 mM DTT) to remove unbound ligand and to reduce non-specific binding. […] Test compounds were prepared as 111× stocks in 100% DMSO.
The compounds were then diluted directly into the assays such that the final concentration of DMSO was 0.9%. All reactions performed in polypropylene 384-well plate. Each was a final volume of 0.02 ml. […] The kinase concentration in the eluates was measured by qPCR.

SMILES | Necroptosis inhibition assay (Rescue %) 1 μM [1] | Necroptosis inhibition assay (Rescue %) 10 μM [1] | Kd [2]
Nc1ncc(C2=CCN(CCOCCOCCNC(=O)CNc3ccc4c(c3)C(=O)N(C3CCC(=O)NC3=O)C4=O)CC2)nc1C(=O)O[C@@H](C(=O)Nc1ccc(F)cc1)c1ccccc1 (stereo partly drawn) [TDH-107, (R)-2-((4-fluorophenyl)amino)-2-oxo-1-phenylethyl 3-amino-6-(1-(2-(2-(2-(2-((2-(2,6-dioxopiperidin-3-yl)-1,3-dioxoisoindolin-5-yl)amino)acetamido)ethoxy)ethoxy)ethyl)-1,2,3,6-tetrahydropyridin-4-yl)pyrazine-2-carboxylate] | 24.34% | 50.16% | 0.56 µM
Nc1ncc(-c2ccc(N3CCN(CC4CCN(C(=O)C5CCN(c6ccc7c(c6)C(=O)N(C6CCC(=O)NC6=O)C7=O)CC5)CC4)CC3)nc2)nc1C(=O)OC(C(=O)Nc1ccc(F)cc1)c1ccccc1 (stereo not shown) [TDH-231, 2-((4-fluorophenyl)amino)-2-oxo-1-phenylethyl 3-amino-6-(6-(4-((1-(1-(2-(2,6-dioxopiperidin-3-yl)-1,3-dioxoisoindolin-5-yl)piperidine-4-carbonyl)piperidin-4-yl)methyl)piperazin-1-yl)pyridin-3-yl)pyrazine-2-carboxylate] | 15.47% | 11.4% | 0.14 µM
Cc1ncsc1-c1ccc(CNC(=O)[C@@H]2C[C@@H](O)CN2C(=O)[C@@H](NC(=O)CCC(=O)N2CCC(CN3CCC(n4cc(-c5cnc(N)c(C(=O)O[C@@H](C(=O)Nc6ccc(F)cc6)c6ccccc6)n5)cn4)CC3)CC2)C(C)(C)C)cc1 [TDH-212, (R)-2-((4-fluorophenyl)amino)-2-oxo-1-phenylethyl 3-amino-6-(1-(1-((1-(4-(((S)-1-((2S,4R)-4-hydroxy-2-((4-(4-methylthiazol-5-yl)benzyl)carbamoyl)pyrrolidin-1-yl)-3,3-dimethyl-1-oxobutan-2-yl)amino)-4-oxobutanoyl)piperidin-4-yl)methyl)piperidin-4-yl)-1H-pyrazol-4-yl)pyrazine-2-carboxylate] | 24.34% | 49.14% | 0.011 µM
Nc1ncc(-c2cnn(C3CCN(CCCCCCNc4ccc5c(c4)C(=O)N(C4CCC(=O)NC4=O)C5=O)CC3)c2)nc1C(=O)O[C@@H](C(=O)Nc1ccc(F)cc1)c1ccccc1 (stereo partly drawn) [TDH-120, (R)-2-((4-fluorophenyl)amino)-2-oxo-1-phenylethyl 3-amino-6-(1-(1-(6-((2-(2,6-dioxopiperidin-3-yl)-1,3-dioxoisoindolin-5-yl)amino)hexyl)piperidin-4-yl)-1H-pyrazol-4-yl)pyrazine-2-carboxylate] | 10.65% |  | 0.0017 µM
Cl.Nc1ncc(-c2cnn(C3CCNCC3)c2)nc1C(=O)N[C@@H](C(=O)Nc1ccc(F)cc1)c1ccccc1 [TDH-099, (R)-3-amino-N-(2-((4-fluorophenyl)amino)-2-oxo-1-phenylethyl)-6-(1-(piperidin-4-yl)-1H-pyrazol-4-yl)pyrazine-2-carboxamide hydrochloride] | 18.18% |  | 0.011 µM
Nc1ncc(-c2cnn(C3CCN(CCOCCOCCNc4ccc5c(c4)C(=O)N(C4CCC(=O)NC4=O)C5=O)CC3)c2)nc1C(=O)N[C@@H](C(=O)Nc1ccc(F)cc1)c1ccccc1 (stereo partly drawn) [TDH-216, 3-amino-6-(1-(1-(2-(2-(2-((2-(2,6-dioxopiperidin-3-yl)-1,3-dioxoisoindolin-5-yl)amino)ethoxy)ethoxy)ethyl)piperidin-4-yl)-1H-pyrazol-4-yl)-N-((R)-2-((4-fluorophenyl)amino)-2-oxo-1-phenylethyl)pyrazine-2-carboxamide] | 21.7% | 38.63% | 0.043 µM
Nc1ncc(-c2cnn(C3CCN(CCCCCCCCCCNC(=O)CNc4ccc5c(c4)C(=O)N(C4CCC(=O)NC4=O)C5=O)CC3)c2)nc1C(=O)O[C@@H](C(=O)Nc1ccc(F)cc1)c1ccccc1 (stereo partly drawn) [TDH-162, (R)-2-((4-fluorophenyl)amino)-2-oxo-1-phenylethyl 3-amino-6-(1-(1-(10-(2-((2-(2,6-dioxopiperidin-3-yl)-1,3-dioxoisoindolin-5-yl)amino)acetamido)decyl)piperidin-4-yl)-1H-pyrazol-4-yl)pyrazine-2-carboxylate] | 36.55% | 26.25% | 0.011 µM
Nc1ncc(-c2cnn(C3CCN(CCOCCOCCNC(=O)CNc4ccc5c(c4)C(=O)N(C4CCC(=O)NC4=O)C5=O)CC3)c2)nc1C(=O)N[C@@H](C(=O)Nc1ccc(F)cc1)c1ccccc1 (stereo partly drawn) [TDH-218, 3-amino-6-(1-(1-(2-(2-(2-(2-((2-(2,6-dioxopiperidin-3-yl)-1,3-dioxoisoindolin-5-yl)amino)acetamido)ethoxy)ethoxy)ethyl)piperidin-4-yl)-1H-pyrazol-4-yl)-N-((R)-2-((4-fluorophenyl)amino)-2-oxo-1-phenylethyl)pyrazine-2-carboxamide] | 27.92% | 40.68% | 0.046 µM
Nc1nccnc1C(=O)O[C@H](C(=O)Nc1ccc(F)cc1)c1ccccc1 [TDH-002, (S)-2-((4-fluorophenyl)amino)-2-oxo-1-phenylethyl 3-aminopyrazine-2-carboxylate] | 6.35% |  | > 10 µM
Nc1ncc(C2=CCN(C(=O)CCCCCNC(=O)CNc3cccc4c3C(=O)N(C3CCC(=O)NC3=O)C4=O)CC2)cc1C(=O)O[C@@H](C(=O)Nc1ccc(F)cc1)c1ccccc1 (stereo partly drawn) [TDH-079, (R)-2-((4-fluorophenyl)amino)-2-oxo-1-phenylethyl 6-amino-1′-(6-(2-((2-(2,6-dioxopiperidin-3-yl)-1,3-dioxoisoindolin-4-yl)amino)acetamido)hexanoyl)-1′,2′,3′,6′-tetrahydro-[3,4′-bipyridine]-5-carboxylate] |  | 0.94% | 0.045 µM
Nc1ncc(C2=CCN(C(=O)COCCOCCNC(=O)C3CN(c4cccc5c4C(=O)N(C4CCC(=O)NC4=O)C5=O)C3)CC2)cc1C(=O)O[C@@H](C(=O)Nc1ccc(F)cc1)c1ccccc1 (stereo partly drawn) [TDH-086, (R)-2-((4-fluorophenyl)amino)-2-oxo-1-phenylethyl 6-amino-1′-(2-(2-(2-(1-(2-(2,6-dioxopiperidin-3-yl)-1,3-dioxoisoindolin-4-yl)azetidine-3-carboxamido)ethoxy)ethoxy)acetyl)-1′,2′, 3′,6′-tetrahydro-[3,4′-bipyridine]-5-carboxylate] | 2.91% |  | 0.041 µM
Nc1ncc(-c2cnn(C3CCN(C(=O)CCCCCNC(=O)CNc4ccc5c(c4)C(=O)N(C4CCC(=O)NC4=O)C5=O)CC3)c2)nc1C(=O)O[C@@H](C(=O)Nc1ccc(F)cc1)c1ccccc1 (stereo partly drawn) [TDH-123, (R)-2-((4-fluorophenyl)amino)-2-oxo-1-phenylethyl 3-amino-6-(1-(1-(6-(2-((2-(2,6-dioxopiperidin-3-yl)-1,3-dioxoisoindolin-5-yl)amino)acetamido)hexanoyl)piperidin-4-yl)-1H-pyrazol-4-yl)pyrazine-2-carboxylate] | 8.69% | 8.92% | 0.00089 µM
